# In US5852210A, “Cinnamic acid derivatives” (G. D. Searle & Co., priority 1997, dated 1998):
# Counter-ions that a name gives are not always drawn.
# Assays:
# [1] = target: T1, Human vitronectin receptor (αv β3) (Homo sapiens, UniProt P05106+P06756); assay: Vitronectin adhesion assay (solid phase receptor assay, αvβ3); type: binding; settings: inhibition of binding of biotinylated human vitronectin (1 nM) to purified receptor; Table I; read-out: AvB3 IC50
# T1 construct: Human vitronectin receptor (αv β3) was purified from human placenta; from tissue; host or cells: human placenta
# T1 sequence (P06756 31-889 limits assumed): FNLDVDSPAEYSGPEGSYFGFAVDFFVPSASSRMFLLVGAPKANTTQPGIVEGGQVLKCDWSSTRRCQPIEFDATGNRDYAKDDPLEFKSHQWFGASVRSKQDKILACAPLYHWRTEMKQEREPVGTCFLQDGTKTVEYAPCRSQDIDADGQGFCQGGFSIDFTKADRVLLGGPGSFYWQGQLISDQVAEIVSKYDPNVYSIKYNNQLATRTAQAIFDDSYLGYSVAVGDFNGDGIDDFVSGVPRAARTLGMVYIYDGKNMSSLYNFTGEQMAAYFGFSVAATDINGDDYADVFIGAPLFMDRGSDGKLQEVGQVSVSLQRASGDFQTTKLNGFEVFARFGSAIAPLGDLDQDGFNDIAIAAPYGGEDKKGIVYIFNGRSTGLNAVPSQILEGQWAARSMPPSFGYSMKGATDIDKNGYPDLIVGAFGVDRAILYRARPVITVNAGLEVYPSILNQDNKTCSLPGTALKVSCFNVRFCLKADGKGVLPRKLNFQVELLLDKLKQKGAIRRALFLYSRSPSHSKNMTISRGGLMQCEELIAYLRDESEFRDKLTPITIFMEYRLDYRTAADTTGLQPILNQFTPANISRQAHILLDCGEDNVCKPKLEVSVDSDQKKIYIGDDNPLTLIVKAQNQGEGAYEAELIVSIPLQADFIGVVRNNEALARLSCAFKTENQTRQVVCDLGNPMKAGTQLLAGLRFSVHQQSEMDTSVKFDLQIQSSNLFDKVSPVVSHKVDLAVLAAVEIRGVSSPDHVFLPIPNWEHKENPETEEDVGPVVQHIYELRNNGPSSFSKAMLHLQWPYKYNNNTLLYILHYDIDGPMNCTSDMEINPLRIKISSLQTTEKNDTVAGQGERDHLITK
# T1 sequence (P06756 891-1048 limits assumed): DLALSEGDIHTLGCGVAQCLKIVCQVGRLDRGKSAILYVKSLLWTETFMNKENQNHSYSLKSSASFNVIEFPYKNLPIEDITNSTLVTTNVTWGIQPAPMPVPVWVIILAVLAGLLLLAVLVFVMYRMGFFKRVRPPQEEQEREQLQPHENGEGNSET
# T1 sequence (P05106 27-788): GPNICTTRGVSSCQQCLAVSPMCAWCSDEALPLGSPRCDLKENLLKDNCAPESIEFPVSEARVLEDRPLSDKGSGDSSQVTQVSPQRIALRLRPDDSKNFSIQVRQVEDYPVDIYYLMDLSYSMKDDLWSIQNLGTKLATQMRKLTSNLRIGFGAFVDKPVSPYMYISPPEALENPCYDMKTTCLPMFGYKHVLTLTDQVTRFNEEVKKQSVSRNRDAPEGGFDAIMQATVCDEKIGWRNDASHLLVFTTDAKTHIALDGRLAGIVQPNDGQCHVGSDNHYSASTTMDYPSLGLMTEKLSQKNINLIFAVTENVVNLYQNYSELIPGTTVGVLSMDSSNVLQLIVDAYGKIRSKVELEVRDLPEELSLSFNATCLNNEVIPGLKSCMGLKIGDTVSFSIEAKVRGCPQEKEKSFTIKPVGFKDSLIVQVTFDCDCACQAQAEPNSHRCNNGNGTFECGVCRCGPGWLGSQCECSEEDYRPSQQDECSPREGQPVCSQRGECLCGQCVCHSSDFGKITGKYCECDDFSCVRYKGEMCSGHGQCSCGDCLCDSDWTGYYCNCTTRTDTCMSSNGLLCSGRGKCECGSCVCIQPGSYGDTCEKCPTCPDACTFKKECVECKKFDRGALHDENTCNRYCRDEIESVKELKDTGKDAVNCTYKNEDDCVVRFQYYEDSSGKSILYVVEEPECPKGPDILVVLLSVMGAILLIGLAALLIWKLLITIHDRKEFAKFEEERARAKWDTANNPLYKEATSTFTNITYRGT
# Method: (§1) The activity of the compounds of the present invention was tested in the following assays.
# Human vitronectin receptor (αv β3) was purified from human placenta as previously described [Pytela et al., Methods in Enzymology, 144:475-489 (1987)]. Human vitronectin was purified from fresh frozen plasma as previously described [Yatohgo et al., Cell Structure and Function, 13:281-292 (1988)]. Biotinylated human vitronectin was prepared by coupling NHS-biotin from Pierce Chemical Company (Rockford, Ill.) to purified vitronectin as previously described [Charo et al., J. Biol. Chem., 266(3):1415-1421 (1991)]. Assay buffer, OPD substrate tablets, and RIA grade BSA were obtained from Sigma (St. Louis, Mo.). Anti-biotin antibody was obtained from Calbiochem (La Jolla, Calif.). Linbro microtiter plates were obtained from Flow Labs (McLean, Va.). ADP reagent was obtained from Sigma (St. Louis, Mo.).
# (§2) Solid Phase Receptor Assays
# This assay was essentially the same as previously reported [Niiya et al., Blood, 70:475-483 (1987)]. The purified human vitronectin receptor (αv β3) was diluted from stock solutions to […] in Tris-buffered saline containing 1.0 mM Ca^++, Mg^++, and Mn^++, pH 7.4 (TBS^+++). The diluted receptor was immediately transferred to Linbro microtiter plates at 100 μL/well (100 ng receptor/well). The plates were sealed and incubated overnight at 4° C. to allow the receptor to bind to the wells. All remaining steps were at room temperature. The assay plates were emptied and 200 μL, of 1% RIA grade BSA in TBS^+++ (TBS^+++ /BSA) were added to block exposed plastic surfaces. Following a 2 hour incubation, the assay plates were washed with TBS^+++ using a 96 well plate washer. Logarithmic serial dilution of the test compound and controls were made starting at a stock concentration of 2 mM and using 2 nM biotinylated vitronectin in TBS^+++ /BSA as the diluent. This premixing of labeled ligand with test (or control) ligand, and subsequent transfer of 50 μL aliquots to the assay plate was carried out with a CETUS Propette robot; the final concentration of the labeled ligand was 1 nM and the highest concentration of test compound was 1.0×10^-4 M. The competition occurred for two hours after which all wells were washed with a plate washer as before. Affinity purified horseradish peroxidase labeled goat anti-biotin antibody was diluted 1:3000 in TBS^+++ /BSA and 125 μL were added to each well. After 30 minutes, the plates were washed and incubated with OPD/H2 O2 substrate in 100 mM/L Citrate buffer, pH 5.0. The plate was read with a microtiter plate reader at a wavelength of 450 nm and when the maximum-binding control wells reached an absorbance of about 1.0, the final A450 were recorded for analysis. The data were analyzed using a macro written for use with the EXCEL™ spreadsheet program. The mean, standard deviation, and % CV were determined for duplicate concentrations. The mean A450 values were normalized to the mean of four maximum-binding controls (no competitor added) (B-MAX). The normalized values were subjected to a four parameter curve fit algorithm [Rodbard et al., Int.
# [2] = target: T2, Human fibrinogen receptor (αIIb β3) (Homo sapiens, UniProt P05106+P08514); assay: Purified IIb/IIIa receptor assay (solid phase receptor assay); settings: inhibition of binding of biotinylated human vitronectin (1 nM) to purified receptor; Table I
# T2 construct: Human fibrinogen receptor (αIIb β3) was purified from outdated platelets; from tissue; host or cells: human outdated platelets
# T2 sequence (P08514 32-887 limits assumed): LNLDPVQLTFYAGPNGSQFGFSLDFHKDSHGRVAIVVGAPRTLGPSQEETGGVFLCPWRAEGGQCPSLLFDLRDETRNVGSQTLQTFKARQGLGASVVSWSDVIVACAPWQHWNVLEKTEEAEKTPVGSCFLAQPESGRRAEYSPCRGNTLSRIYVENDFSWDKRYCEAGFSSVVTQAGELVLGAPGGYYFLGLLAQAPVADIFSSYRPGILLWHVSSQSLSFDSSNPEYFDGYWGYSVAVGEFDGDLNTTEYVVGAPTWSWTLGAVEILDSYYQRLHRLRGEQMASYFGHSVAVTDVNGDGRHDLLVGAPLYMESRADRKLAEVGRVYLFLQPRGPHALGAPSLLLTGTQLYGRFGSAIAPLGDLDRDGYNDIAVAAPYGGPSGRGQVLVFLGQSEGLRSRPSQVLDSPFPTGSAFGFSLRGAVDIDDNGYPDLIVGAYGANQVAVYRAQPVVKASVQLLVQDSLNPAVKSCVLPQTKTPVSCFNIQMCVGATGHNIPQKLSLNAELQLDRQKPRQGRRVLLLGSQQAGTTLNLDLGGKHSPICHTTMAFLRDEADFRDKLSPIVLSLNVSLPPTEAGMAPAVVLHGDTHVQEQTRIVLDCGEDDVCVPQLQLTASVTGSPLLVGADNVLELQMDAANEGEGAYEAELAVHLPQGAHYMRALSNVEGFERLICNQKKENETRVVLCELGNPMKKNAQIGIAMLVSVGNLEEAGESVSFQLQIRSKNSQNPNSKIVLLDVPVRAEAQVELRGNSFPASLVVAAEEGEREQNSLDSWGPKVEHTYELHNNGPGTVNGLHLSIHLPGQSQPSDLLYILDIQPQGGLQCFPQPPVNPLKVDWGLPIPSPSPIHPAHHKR
# T2 sequence (P08514 891-1039 limits assumed): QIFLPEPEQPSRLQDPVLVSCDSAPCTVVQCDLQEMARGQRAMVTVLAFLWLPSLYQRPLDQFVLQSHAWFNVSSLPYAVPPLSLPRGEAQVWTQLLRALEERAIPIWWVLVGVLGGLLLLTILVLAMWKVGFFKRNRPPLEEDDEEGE
# T2 sequence (P05106 27-788): as the sequence (P05106 27-788) above
# Method: as §1
# Human fibrinogen receptor (αIIb β3) was purified from outdated platelets. (Pytela, R., Pierschbacher, M. D., Argraves, S., Suzuki, S., and Rouslahti, E. "Arginine-Glycine-Aspartic acid adhesion receptors", Methods in Enzymology 144(1987):475-489.) Human vitronectin was purified from fresh frozen plasma as described in Yatohgo, T., Izumi, M., Kashiwagi, H., and Hayashi, M., "Novel purification of vitronectin from human plasma by heparin affinity chromatography," Cell Structure and Function 13(1988):281-292. Biotinylated human vitronectin was prepared by coupling NHS-biotin from Pierce Chemical Company (Rockford, Ill.) to purified vitronectin as previously described. (Charo, I. F., Nannizzi, L., Phillips, D. R., Hsu, M. A., Scarborough, R. M., "Inhibition of fibrinogen binding to GP IIb/IIIa by a GP IIIa peptide", J. Biol. Chem. 266(3) (1991): 1415-1421.) Assay buffer, OPD substrate tablets, and RIA grade BSA were obtained from Sigma (St. Louis, Mo.). Anti-biotin antibody was obtained from Calbiochem (La Jolla, Calif.). Linbro microtiter plates were obtained from Flow Labs (McLean, Va.). ADP reagent was obtained from Sigma (St. Louis, Mo.).
# as §2
# This assay is essentially the same reported in Niiya, K., Hodson, E., Bader, R., Byers-Ward, V. Koziol, J. A., Plow, E. F. and Ruggeri, Z. M., "Increased surface expression of the membrane glycoprotein IIb/IIIa complex induced by platelet activation: Relationships to the binding of fibrinogen and platelet aggregation", Blood 70 (1987):475-483. The purified human fibrinogen receptor (αIIb β3) was diluted from stock solutions to 1.0 μg/mL in Tris-buffered saline containing 1.0 mM Ca^++, Mg^++, and Mn^++, pH 7.4 (TBS^+++). The diluted receptor was immediately transferred to Linbro microtiter plates at 100 μL/well (100 ng receptor/well). The plates were sealed and incubated overnight at 4° C. to allow the receptor to bind to the wells. All remaining steps were at room temperature. The assay plates were emptied and 200 μL of 1% RIA grade BSA in TBS^+++ (TBS^+++ /BSA) were added to block exposed plastic surfaces. Following a 2 hour incubation, the assay plates were washed with TBS^+++ using a 96 well plate washer. Logarithmic serial dilution of the test compound and controls were made starting at a stock concentration of 2 mM and using 2 nM biotinylated vitronectin in TBS^+++ /BSA as the diluent. This premixing of labeled ligand with test (or control) ligand, and subsequent transfer of 50 μL aliquots to the assay plate was carried out with a CETUS Propette robot; the final concentration of the labeled ligand was 1 nM and the highest concentration of test compound was 1.0×10^-4 M. The competition occurred for two hours after which all wells were washed with a plate washer as before. Affinity purified horseradish peroxidase labeled goat anti-biotin antibody was diluted 1:3000 in TBS^+++ /BSA and 125 μL were added to each well. After 30 minutes, the plates were washed and incubated with […]/H2 O2 substrate in 100 mM/L citrate buffer, pH 5.0. The plate was read with a microtiter plate reader at a wavelength of 450 nm and when the maximum-binding control wells reached an absorbance of about 1.0, the final A450 were recorded for analysis. The data were analyzed using a macro written for use with the EXCEL™ spreadsheet program. The mean, standard deviation, and % CV were determined for duplicate concentrations. The mean A450 values were normalized to the mean of four maximum-binding controls (no competitor added) (B-MAX). The normalized values were subjected to a four parameter curve fit algorithm, [Robard et al., Int.
SMILES,IC50 [1] [nM],IC50 [2] [nM]
"N=C(N)Nc1cccc(C(=O)Nc2cc(Cl)c(/C=C/C(=O)O)c(Cl)c2)c1 [Example 29, 3-[4-[[[3-[(aminoiminomethyl)amino]phenyl]carbonyl]-amino]-2,6-dichlorophenyl]propenoic acid, dihydrochloride dihydrate]",1830,25400
"COc1cc(NC(=O)c2cccc(NC(=N)N)c2)ccc1/C=C/C(=O)O [Example 31, 3-[4-[[[3-(aminoiminomethyl)amino]phenyl]carbonyl]-amino]-2-methoxyphenyl]propenoic acid, trifluoroacetate salt]",9.66,69.1
"Cc1cc(NC(=O)c2cccc(NC(=N)N)c2)ccc1/C=C/C(=O)O [Example 33, 3-[4-[[[3-[(aminoiminomethyl)amino]phenyl]carbonyl]-amino]-2-methylphenyl]propenoic acid, trifluoroacetate salt]",73.3,121
"N=C(N)Nc1cccc(C(=O)Nc2ccc(/C=C/C(=O)O)c(C(F)(F)F)c2)c1 [Example 35, trifluoroacetate salt]",122,152
"N=C(N)Nc1cccc(C(=O)Nc2ccc(/C=C/C(=O)O)c(C(=O)O)c2)c1 [Example 36, 5-[[[3-[(aminoiminomethyl)amino]phenyl]carbonyl]amino]-2-(2-carboxyethenyl)benzoic acid, trifluoroacetate salt]",1.23,9.06
"COC(=O)c1cc(NC(=O)c2cccc(NC(=N)N)c2)ccc1/C=C/C(=O)O [Example 37, methyl 5-[[[3-[(aminoiminomethyl)amino]phenyl]carbonyl]amino]-2-(2-carboxyethenyl)benzoate, trifluoroacetate salt]",32.3,80
"COC(=O)/C=C/c1ccc(NC(=O)c2cccc(NC3=NCCCN3)c2)cc1C(=O)O [Example 40C, 2-[2-(methoxycarbonyl)ethenyl]-5-[[[3-[(1,4,5,6-tetrahydropyrimidin-2-yl)amino]phenyl]carbonyl]amino]benzoic acid, trifluoroacetate salt]",176,20400

# The remaining lines, values ahead:
IC50 [1] [nM],IC50 [2] [nM],SMILES
0.53,439,"CCc1cc(/C=C/C(=O)O)ccc1NC(=O)c1cccc(NC2=NCCCN2)c1 [Example 19, 3-[3-ethyl-4-[[[3-[(1,4,5,6-tetrahydropyrimidin-2-yl)amino]phenyl]carbonyl]amino]phenyl]propenoic acid, trifluoroacetate salt]"
0.49,125,"CCc1cc(/C=C/C(=O)O)ccc1NC(=O)c1cccc(NC2=NCCN2)c1 [Example 21, 3-[4-[[[3-[(4,5-dihydro-1H-imidazol-2-yl)amino]-phenyl]carbonyl]amino]-3-ethylphenyl]propenoic acid, trifluoroacetate salt]"
0.48,234,"O=C(O)/C=C/c1ccc(NC(=O)c2cccc(NC3=NCCCN3)c2)c(Cl)c1 [Example 22, 3-[3-chloro-4-[[[3-[(1,4,5,6-tetrahydropyrimidin-2-yl)amino]phenyl]carbonyl]amino]phenyl]propenoic acid, trifluoroacetate salt]"
0.31,80.3,"O=C(O)/C=C/c1ccc(NC(=O)c2cccc(NC3=NCCN3)c2)c(Cl)c1 [Example 23, 3-[3-chloro-4-[[[3-[(4,5-dihydro-1H-imidazol-2-yl)amino]-phenyl]carbonyl]amino]phenyl]-2E-propenoic acid, trifluoroacetate salt]"
4.93,8270,"Cc1cc(/C=C/C(=O)O)cc(C)c1NC(=O)c1cccc(NC2=NCCCN2)c1 [Example 24, 3-[3,5-dimethyl-4-[[[3-[(1,4,5,6-tetrahydropyrimidin-2-yl)amino]phenyl]carbonyl]amino]phenyl]-2E-propenoic acid, bis(trifluoroacetate salt)]"
2.82,1830,"Cc1cc(/C=C/C(=O)O)cc(C)c1NC(=O)c1cccc(NC2=NCCN2)c1 [Example 25, 3-[4-[[[3-[(4,5-dihydroimidazol-2-yl)amino]-phenyl]carbonyl]amino]-3,5-dimethylphenyl]-2E-propenoic acid, trifluoroacetate salt]"
204,> 100000,"Cc1cc(/C=C/C(=O)O)cc(C)c1NC(=O)c1cccc(NC(N)=O)c1 [Example 27, 3-[4-[[[3-[(aminocarbonyl)amino]phenyl]carbonyl]-amino]-3,5-dimethylphenyl]propenoic acid, trifluoroacetate salt]"
0.45,97.2,"O=C(O)/C=C/c1ccc(NC(=O)c2cccc(NC3=NCCCN3)c2)cc1C(=O)O [Example 40A, 2-(2-carboxyethenyl)-5-[[[3-[(1,4,5,6-tetrahydropyrimidin-2-yl)amino]phenyl]carbonyl]amino]benzoic acid, trifluoroacetate salt]"
5.71,817,"COC(=O)c1cc(NC(=O)c2cccc(NC3=NCCCN3)c2)ccc1/C=C/C(=O)O [Example 40B, methyl 2-(2-carboxyethenyl)-5-[[[3-[(1,4,5,6-tetrahydropyrimidin-2-yl)amino]phenyl]carbonyl]amino]benzoate, trifluoroacetate salt]"
